Laboratory results as given in US7517949B2, “Livin-derived peptides, compositions and uses thereof” (Hadasit Medical Research Services & Development Ltd., priority 2003, dated 2009).

Legend:
Type in all cases: cell-based, human
[1] = test system: LB33 Mel B1 cells; assay: Etoposide-induced apoptosis, nuclear morphology, LB33 Mel B1; settings: Mel B1, high levels of Livin; etoposide 15 μg/ml
Protocol: (§1) (b) Melanoma cell lines LB33 Mel A1 and B1 were treated with etoposide (15 μg/ml). Apoptosis rate was determined by nuclear morphology, as described.
(§2) Nuclear morphology was visualized using acridin orange (Sigma) staining as described [Loo, D. T. et al. (1998) Methods Cell Biol., 57: 251-264]. […] The percentage of apoptotic to viable cells was counted by fluorescence microscopy and 500 cells were scored for each sample. Flow cytometry analysis of the apoptotic cells was done using two different methods. In the Sub-G1 assay the cells were harvested, washed with PBS and fixed using 100% methanol. […] Cells transfected with a GFP-containing plasmid were analyzed using Annexin-V-Cy5 and PI staining according to the manufacturer instructions (MBL, Japan). In stably transfected cultures with a rate of GFP-positive cells higher than 95%, all cells were analyzed for apoptosis. In transiently transfected cells, GFP expression was first analyzed (FL-1), and only GFP-positive cells were analyzed for Annexin-V-Cy5 (FL-4) and PI (FL-3) staining.
(§3) LB33 A1 and B1 are two metastatic melanoma cell lines derived from the same patient before and after vaccination with autologous melanoma cells [Ikeda, H. et al. (1997) Immunity 6: 199-208; Lehmann, F. et al. (1995) Eur. J. Immunol. […] PARP was detected in all samples, confirming similar protein content.

[2] = test system: primary melanoma cells; assay: Etoposide-induced apoptosis in primary melanoma cultures (nuclear morphology); settings: etoposide 15 μg/ml, 24 and 48 hours
Protocol: FIG. 8b: Six samples were selected according to the level of Livin expression (high: 5556, 55112, moderate: 5524, 55164, or undetectable: 5530, 5533). […] Apoptosis rate was determined by nuclear morphology, as described. The data shown are representative of three independent experiments, which were also confirmed by flow cytometry, using sub-G1 assay.
Primary melanoma cells were derived and maintained as described [Lotem, M. et al. (2002) Br J Cancer, 86: 1534-1539].
Nuclear morphology was visualized using acridin orange (Sigma) staining as described [Loo, D. T. et al. (1998) Methods Cell Biol., 57: 251-264]. […] The percentage of apoptotic to viable cells was counted by fluorescence microscopy and 500 cells were scored for each sample. Flow cytometry analysis of the apoptotic cells was done using two different methods. In the Sub-G1 assay the cells were harvested, washed with PBS and fixed using 100% methanol. Following an overnight incubation at −20° C., cells were re-hydrated with PBS for 30 minutes on ice, and then resuspended in PBS with RNase A (50 μg/ml) and stained with Propidium Iodide (PI) (Sigma) at a final concentration of 5 μg/ml. Flow cytometry analysis was performed in FL2 histogram. Cells transfected with a GFP-containing plasmid were analyzed using Annexin-V-Cy5 and PI staining according to the manufacturer instructions (MBL, Japan). In stably transfected cultures with a rate of GFP-positive cells higher than 95%, all cells were analyzed for apoptosis. In transiently transfected cells, GFP expression was first analyzed (FL-1), and only GFP-positive cells were analyzed for Annexin-V-Cy5 (FL-4) and PI (FL-3) staining.
In order to determine whether Livin expression renders the melanoma cells resistant to chemotherapy, six melanoma samples were selected, according to their Livin expression. […] After 24 and 48 hours, cells were harvested and the percent of apoptosis determined in each sample by nuclear morphology (FIG. 8b). […]

[3] = test system: LB33 Mel A1 cells; assay: Etoposide-induced apoptosis, nuclear morphology, LB33 Mel A1; settings: Mel A1, no Livin expression; etoposide 15 μg/ml
Protocol: as §1, §2, §3

## COc1cc([C@@H]2c3cc4c(cc3[C@@H](O[C@@H]3O[C@@H]5CO[C@@H](C)O[C@H]5[C@H](O)[C@H]3O)[C@H]3COC(=O)[C@H]23)OCO4)cc(OC)c1O [etoposide]
[1]
  response to etoposide (apoptosis by nuclear morphology): completely resistant
[2]; samples 5524 and 55164, intermediate Livin
  moderate resistance (percent of apoptosis): 15-25%
[2]; samples 5533 and 5530, no Livin expression
  apoptosis rate: up to 55%
[2]; samples 5556 and 55112, high Livin expression
  resistance to etoposide: completely resistant
[3]
  response to etoposide (apoptosis by nuclear morphology): rapidly underwent apoptosis
